US20230133445A1, “COMPOSITIONS AND METHODS FOR IMPROVING THE APPEARANCE OF SKIN” (L'Oreal, priority 2021, published 2023)

Experiments:
[1] = type: in vitro ADME, human
Protocol: Human skin samples were obtained from abdominal surgery. Excess subcutaneous fat was removed, if necessary. Skin samples were excised and cut into pieces of around 2 cm×2 cm. Thickness was measured and transepidermal water loss (TEWL) was measured. The human skin was included in the study if the TEWL was between 0.5 and 13 g/m^2/h for abdominal skin. The 2 cm^2 skin samples were kept in a static cell in a diffusion chamber in a Franz cell horizontal cell clamp system (Crown Glass Company, Inc.) and maintained at a constant temperature of 32° C.±1° C. The static cells consist of a donor chamber and a receptor chamber with a 7 mL receptor fluid compartment separated by the skin.
The cells were placed on a magnetic stirrer which was integrated with a fixed temperature water bath maintained in order to have 32° C.±1° C. at the skin surface. The receptor compartment of each cell was filled with the receptor fluid (PBS) and was continuously stirred. The skin samples were placed on the receptor compartment. The donor compartment was then placed onto the skin samples. […]
A composition containing 2 wt % acetyl trifluoromethylphenyl valylglycine was applied to the skin sample at a rate of 10 mg/cell using a positive displacement pipette and the exact amount applied was determined by weight then recorded (Sartorius Entris II Essential Analytical balance, Thermo-Fisher). […]
The skin was then stripped with consistent weight and time of application. […] The strips samples were stored with solvent (methanol) at −20° C. for a maximum of 5 days before being analyzed. […] The RS vials were stored with solvent (methanol) at −20° C. for a maximum of 7 days before being analyzed. Dermis and epidermis samples were stored with solvent at −20° C. for a maximum of 7 days before being analyzed. The receptor fluid was taken 16 hours after the application and the samples were analyzed.
Receptor fluid samples were stored at −20° C. for a maximum of 6 days before being analyzed. […] Samples were stored at −20° C. for a maximum of 5 days before being analyzed.
The final extract was analyzed by LC-MS/MS. […]

Neutrophil Elastase = biological target: T1, Neutrophil Elastase (Homo sapiens, UniProt P08246); assay: Neutrophil Elastase (NE) Inhibition in tubo assay (MAK213, Sigma-Aldrich); type: biochemical
T1 construct: purchased Sigma-Aldrich MAK213
T1 sequence (P08246 30-267): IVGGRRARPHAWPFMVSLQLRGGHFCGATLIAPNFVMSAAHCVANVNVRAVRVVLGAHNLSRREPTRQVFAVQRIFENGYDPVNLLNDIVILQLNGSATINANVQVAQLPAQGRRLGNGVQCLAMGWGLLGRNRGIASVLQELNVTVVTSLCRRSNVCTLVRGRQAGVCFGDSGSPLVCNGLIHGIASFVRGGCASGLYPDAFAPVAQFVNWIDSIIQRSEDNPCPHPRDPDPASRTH
Protocol: The ability of acetyl trifluoromethylphenyl valylglycine (“ATV”), glycolic acid, and/or lactic acid to inhibit the elastin-hydrolyzing effect of elastase was evaluated in a Neutrophil Elastase (NE) Inhibition in tubo assay (MAK213, Sigma-Aldrich, MO). Neutrophil Elastase activity was measured by hydrolyzing the substrate to yield a fluorescent product (λex=400/λem=505 nm) proportional to the enzymatic activity present.
A 4× sample inhibitor solution of the each tested chemical peeling agent and acetyl trifluoromethylphenyl valylglycine, and every combination provided in FIGS. 1 and 2 was prepared. The inhibitor/positive control (Elastase Inhibitor, SPCK, AG Scientific), enzyme/negative control (contains elastase), neutrophil elastase, and substrate solutions were prepared. The test compounds, controls, and neutrophil elastase were added to a 96-well plate, protected from light, and incubated at 37° C. for 5 minutes. The elastin substrate was then added to each well and the fluorescence (FLU, λex=400 nm, λem=505 nm) was measured every minute for thirty minutes at 37° C. The slope of the plot (time vs FLU) was taken. Relative inhibition was calculated as follows: […]

Compound: CC(=O)N(c1cccc(C(F)(F)F)c1)C(C(=O)NCC(=O)O)C(C)C (stereo not shown) [ATV, acetyl trifluoromethylphenyl valylglycine]
- amount penetrated through the stratum corneum [1]: about 0.08 wt %
- amount penetrating past the stratum corneum barrier into epidermis, dermis and receptor fluid [1]: about 0.8%
- dermal dose of the 2 wt % preparation [1]: at least 0.08 wt %
- Average Inhibition (%) (Neutrophil Elastase; Table 1, 0.0125 wt % ATV): 12.49%
- Average Inhibition (%) (Neutrophil Elastase; Table 1, 0.025 wt % ATV): 14.97%
- Average Inhibition (%) (Neutrophil Elastase; Table 1, 0.0625 wt % ATV): 18.36%
- Average Inhibition (%) (Neutrophil Elastase; Table 2, 0.0125 wt % ATV): 4.93%
- Average Inhibition (%) (Neutrophil Elastase; Table 2, 0.025 wt % ATV): 9.311%
- Average Inhibition (%) (Neutrophil Elastase; Table 2, 0.0625 wt % ATV): 11.96%

Compound: O=C(O)CO [Glycolic Acid, reference compound]
- Average Inhibition (%) (Neutrophil Elastase; Table 1, 0.125 wt % Glycolic Acid): 15.8949%
- Average Inhibition (%) (Neutrophil Elastase; Table 1, 0.625 wt % Glycolic Acid): 23.89%

Compound: CC(O)C(=O)O (stereo not shown) [Lactic Acid, reference compound]
- Average Inhibition (%) (Neutrophil Elastase; Table 2, 0.125 wt % Lactic Acid): 8.507%
- Average Inhibition (%) (Neutrophil Elastase; Table 2, 0.625 wt % Lactic Acid): 24.09%
